For two compounds, Ki results are on record in patent US5750546A, “2-(2, 3, 5, 6-tetrafluoro-4-pyridyl)-1, 2, 5-thiadiazolidin-3-one 1, 1-dioxides and compositions and method of use thereof” (Sanofi Winthrop, Inc., priority 1994, dated 1998).

Molecules are shown by their SMILES.

One may read the Ki as the dissociation constant of the complex between target and ligand, obtained from inhibition or displacement.

This experiment has as its target T1, human leukocyte elastase (Homo sapiens, UniProt P08246).
T1 sequence (P08246 30-267): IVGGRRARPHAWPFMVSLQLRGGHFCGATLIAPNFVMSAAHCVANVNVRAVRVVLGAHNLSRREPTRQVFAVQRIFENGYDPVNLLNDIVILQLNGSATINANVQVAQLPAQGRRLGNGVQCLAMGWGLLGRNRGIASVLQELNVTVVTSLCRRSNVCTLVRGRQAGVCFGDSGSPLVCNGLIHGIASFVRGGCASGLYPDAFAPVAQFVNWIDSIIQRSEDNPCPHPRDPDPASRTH
Description: human leukocyte elastase inhibition assay (progress curves, MeOSuc-Ala-Ala-Pro-Val-pNA substrate). Type of experiment: biochemical. Conditions: in vitro, pH 7.8 at 25° C., absorbance 410 nm, read-out: Ki, human leukocyte elastase inhibitory activity. On the procedure:
The test compound (inhibitor) is dissolved in DMSO in a vial to produce an inhibitor stock solution which has a concentration in the range of 200-1000μM. The inhibitor stock solution is diluted (1:4, 1:16 and 1:64) into assay vials (vials 1, 2 and 3 respectively) containing 2.4 mL of buffer solution (50 mM N-[2-hydroxyethyl] piperazine-N'-[2-ethanesulfonic acid]/NaOH, 500 mM NaCl, pH 7.8 at 25° C.) and DMSO is added so that the total volume in each vial is 3.2 mL. 70 μL, 50 μL, 35 μL and 25 μL of inhibitor from assay vial 1 is placed into the first four wells of a 96-well microtiter plate and each well is made up to 90 μL total volume with the addition of a 25% DMSO/buffer solution. […]
The 96-well microtiter plate is placed into a Microplate Reader #89815A spectrophotometer and 110 μL of the enzyme solution (prepared as follows: a mixture of 20 mL of buffer solution and 20 mg of bovine serum albumen is gently vortexed in a scintillation vial and 5 μL HLE stock solution (1 mg/mL dissolved in deionized water) is added) is added simultaneously to each of the 16 wells. Each of the solutions in the wells is throughly mixed and then the time-dependent absorbance data is collected at an absorbance of 410 nm until the assay is complete. […]
A plot of the absorbance versus time data thus obtained affords progress curves the final slope of which is equal to the final steady-state velocities (VF). […]

`CC(C)CCC1C(=O)N(c2c(F)c(F)nc(F)c2F)S(=O)(=O)N1C` (centres unmarked) [2(h), 2-(2,3,5,6-tetrafluoro-4-pyridyl)-5-methyl-4-(3-methylbutyl)-1,2,5-thiadiazolidin-3-one 1,1-dioxide]: the Ki is greater than 100 nM.
The result for `CCCC1C(=O)N(c2c(F)c(F)nc(F)c2F)S(=O)(=O)N1C` (centres unmarked) [Example 1(g), 2-(2,3,5,6-tetrafluoro-4-pyridyl)-5-methyl-4-propyl-1,2,5-thiadiazolidin-3-one 1,1-dioxide] reads 10 nM.
